Data from patent US6680055B1, “Mycolactone and related compounds, compositions and methods of use” (priority 1999, dated 2004).

Tests used:
[1] = Biological activity level of mycolactones (test not specified)
H460 lung cancer cells = experiment: National Cancer Institute growth testing, H460; assay type: cell-based
Experimental: (§1) Acetone-soluble lipids (ASLs) were prepared from intact M. ulcerans cells as in Example 1, except that the acetone resuspension was applied to a preparative TLC plate to allow substantial separation of the ASLs based on relative mobility in the TLC system. The ASL with a mobility of 0.23 relative to the solvent front was scraped from the plate and resuspended.

[2] = tested on: infiltration of macrophages and polymorphonuclear neutrophils; experiment: Inflammatory reaction at site of M. marinum infection in guinea pigs; assay type: in vivo, Hartley guinea pigs; details: 16 hours after infection
Experimental: Mycolactone was purified as in Example 2. Hartley guinea pigs were inoculated with an infectious quantity of M. marinum. When the inoculum was not accompanied by mycolactone, a painful, purulent lesion developed in the guinea pigs, indicative of an inflammatory reaction. In contrast, when mycolactone was injected into the locus, tissue necrosis still developed, but the infiltration of macrophages and polymorphonuclear neutrophils was delayed by 24 to 48 hours, resulting in greater than a 1,000-fold reduction in the number of neutrophils invading the site of infection 16 hours after infection. Inflammation, or the lack thereof, was confirmed by histopathological examination of paraffin embedded tissues stained with eosin and hematoxylin. While not desiring to be bound by any particular theory, it is believed that the subsequent inflammation that occurred in mycolactone-treated animals was partially a consequence of the continued growth of M. marinum. When the polyketide macrolides of the present invention are used to decrease inflammation at a site of infection, the inventive method is optionally accompanied by the administration of antibiotics.

[3] = tested on: SF-268 central nervous system cancer cells; experiment: National Cancer Institute growth testing, SF-268; assay type: cell-based
Experimental: as §1

[4] = tested on: MCF-7 breast cancer cells; experiment: National Cancer Institute growth testing, MCF-7; assay type: cell-based
Experimental: as §1

SMILES: C/C1=C/C[C@H]([C@@H](C)C/C(C)=C/[C@@H](C)[C@H](O)C[C@@H](C)O)OC(=O)CCC[C@H](OC(=O)/C=C/C(C)=C/C(C)=C/C=C/C(C)=C/[C@H](O)[C@@H](O)C[C@H](C)O)[C@@H](C)C1 [B]
- biological activity of isomers compared ([1]; isomers differing at the 4′ position): same biological activity

SMILES: CC(=C/C(C)=C/C=C/C(C)=C/C(O)C(O)CC(C)O)/C=C/C(=O)OC1CCCC(=O)OC(C(C)C/C(C)=C/C(C)C(O)CC(C)O)C/C=C(\C)CC1C (stereo not drawn) [mycolactone]
- relative growth rate (H460 lung cancer cells): −72%
- reduction in the number of neutrophils invading the site of infection [2]: > 1,000 fold
- relative growth rate [3]: −79%
- relative growth rate [4]: −78%

SMILES: CC(=C\C=C\C(C)=C\C[C@@H](O)C[C@H](C)O)/C=C(C)/C=C/C(=O)O[C@H]1CCCC(=O)O[C@@H]([C@@H](C)C/C(C)=C/[C@@H](C)[C@H](O)C[C@@H](C)O)C/C=C(\C)C[C@@H]1C [mycolactone C]
- activity level relative to the other mycolactones ([1]; mycolactone found in Australian isolates): about 10,000 fold lower
